Source: ChEMBL document CHEMBL4138146, “A Schmidt rearrangement-mediated synthesis of novel tetrahydro-benzo[1,4]diazepin-5-ones as potential anticancer and antiprotozoal agents” (Eur J Med Chem, 2017)
In brackets after ≈: the same amount, converted by molar mass.

Tests used:
[1] = system: SK-OV-3; test: Growth inhibition of human SKOV3 cells assessed as cell growth at 10 uM incubated for 48 hrs by sulforhodamine B assay relative to control; assay type: functional; details: SK-OV-3, 48 h, read-out: Activity
[2] = system: COLO 205; test: Growth inhibition of human COLO205 cells assessed as cell growth at 10 uM incubated for 48 hrs by sulforhodamine B assay relative to control; assay type: functional; details: COLO 205, 48 h, read-out: Activity
[3] = system: SK-MEL-5; test: Growth inhibition of human SK-MEL-5 cells assessed as cell growth at 10 uM incubated for 48 hrs by sulforhodamine B assay relative to control; assay type: functional; details: SK-MEL-5, 48 h, read-out: Activity
[4] = system: NCI-H226; test: Growth inhibition of human NCI-H226 cells assessed as cell growth at 10 uM incubated for 48 hrs by sulforhodamine B assay relative to control; assay type: functional; details: NCI-H226, 48 h, read-out: Activity
[5] = system: Hs-578T; test: Growth inhibition of human Hs 578T cells assessed as cell growth at 10 uM incubated for 48 hrs by sulforhodamine B assay relative to control; assay type: functional; details: read-out: Activity
[6] = system: DU-145; test: Growth inhibition of human DU145 cells assessed as cell growth at 10 uM incubated for 48 hrs by sulforhodamine B assay relative to control; assay type: functional; details: DU-145, 48 h, read-out: Activity
[7] = system: MDA-MB-435; test: Growth inhibition of human MDA-MB-435 cells assessed as cell growth at 10 uM incubated for 48 hrs by sulforhodamine B assay relative to control; assay type: functional; details: MDA-MB-435, 48 h, read-out: Activity
[8] = system: TK-10; test: Growth inhibition of human TK10 cells assessed as cell growth at 10 uM incubated for 48 hrs by sulforhodamine B assay relative to control; assay type: functional; details: TK-10, 48 h, read-out: Activity
[9] = system: SF-539; test: Growth inhibition of human SF539 cells assessed as cell growth at 10 uM incubated for 48 hrs by sulforhodamine B assay relative to control; assay type: functional; details: SF-539, 48 h, read-out: Activity
[10] = system: SNB-75; test: Growth inhibition of human SNB75 cells assessed as cell growth at 10 uM incubated for 48 hrs by sulforhodamine B assay relative to control; assay type: functional; details: SNB-75, 48 h, read-out: Activity
[11] = system: CAKI-1; test: Growth inhibition of human Caki1 cells assessed as cell growth at 10 uM incubated for 48 hrs by sulforhodamine B assay relative to control; assay type: functional; details: CAKI-1, 48 h, read-out: Activity
[12] = system: OVCAR-4; test: Growth inhibition of human OVCAR4 cells assessed as cell growth at 10 uM incubated for 48 hrs by sulforhodamine B assay relative to control; assay type: functional; details: OVCAR-4, 48 h, read-out: Activity
[13] = system: OVCAR-5; test: Growth inhibition of human OVCAR5 cells assessed as cell growth at 10 uM incubated for 48 hrs by sulforhodamine B assay relative to control; assay type: functional; details: OVCAR-5, 48 h, read-out: Activity
[14] = system: HOP-92; test: Growth inhibition of human HOP92 cells assessed as cell growth at 10 uM incubated for 48 hrs by sulforhodamine B assay relative to control; assay type: functional; details: HOP-92, 48 h, read-out: Activity
[15] = system: ACHN; test: Growth inhibition of human ACHN cells assessed as cell growth at 10 uM incubated for 48 hrs by sulforhodamine B assay relative to control; assay type: functional; details: read-out: Activity
[16] = system: SK-MEL-28; test: Growth inhibition of human SK-MEL-28 cells assessed as cell growth at 10 uM incubated for 48 hrs by sulforhodamine B assay relative to control; assay type: functional; details: SK-MEL-28, 48 h, read-out: Activity
[17] = system: HOP-62; test: Growth inhibition of human HOP62 cells assessed as cell growth at 10 uM incubated for 48 hrs by sulforhodamine B assay relative to control; assay type: functional; details: HOP-62, 48 h, read-out: Activity
[18] = system: K562; test: Growth inhibition of human K562 cells assessed as cell growth at 10 uM incubated for 48 hrs by sulforhodamine B assay relative to control; assay type: functional; details: K562, 48 h, read-out: Activity
[19] = system: MOLT-4; test: Growth inhibition of human MOLT4 cells assessed as cell growth at 10 uM incubated for 48 hrs by sulforhodamine B assay relative to control; assay type: functional; details: MOLT-4, 48 h, read-out: Activity
[20] = system: HL-60(TB); test: Growth inhibition of human HL-60(TB) cells assessed as cell growth at 10 uM incubated for 48 hrs by sulforhodamine B assay relative to control; assay type: functional; details: HL-60, 48 h, read-out: Activity
[21] = system: EKVX; test: Growth inhibition of human EKVX cells assessed as cell growth at 10 uM incubated for 48 hrs by sulforhodamine B assay relative to control; assay type: functional; details: read-out: Activity
[22] = system: MCF7; test: Growth inhibition of human MCF7 cells assessed as cell growth at 10 uM incubated for 48 hrs by sulforhodamine B assay relative to control; assay type: functional; details: MCF7, 48 h, read-out: Activity
[23] = system: SF-295; test: Growth inhibition of human SF295 cells assessed as cell growth at 10 uM incubated for 48 hrs by sulforhodamine B assay relative to control; assay type: functional; details: SF-295, 48 h, read-out: Activity
[24] = system: SR; test: Growth inhibition of human SR cells assessed as cell growth at 10 uM incubated for 48 hrs by sulforhodamine B assay relative to control; assay type: functional; details: read-out: Activity
[25] = system: HCT-15; test: Growth inhibition of human HCT15 cells assessed as cell growth at 10 uM incubated for 48 hrs by sulforhodamine B assay relative to control; assay type: functional; details: HCT-15, 48 h, read-out: Activity
[26] = system: Plasmodium falciparum; test: Antimalarial activity against chloroquine-sensitive Plasmodium falciparum 3D7 incubated for 48 hrs by malstat reagent based LDH release assay; assay type: functional, organism-based; details: 3D7, 48 h
[27] = system: Leishmania panamensis; test: Antileishmanial activity against EpiR/GFP fused Leishmania panamensis MHOM/CO/87/UA140 intracellular amastigotes infected in human […] cells after 72 hrs by flow cytometric method; assay type: functional, organism-based; details: MHOM/CO/87/UA140, 72 h
[28] = system: Trypanosoma cruzi; test: Antitrypanosomal activity against Trypanosoma cruzi Tulahuen amastigote forms infected in human U937 cells after 72 hrs by beta-galactosidase reporter gene assay; assay type: functional, organism-based; details: U-937, 72 h
[29] = system: U-937; test: Cytotoxicity against human U937 cells after 72 hrs by MTT assay; assay type: functional; details: U-937, 72 h, read-out: LC50 (the source's name)

| Compound | growth at 10 µM [1] [%] | growth at 10 µM [2] [%] | growth at 10 µM [3] [%] | growth at 10 µM [4] [%] | growth at 10 µM [5] [%] | growth at 10 µM [6] [%] | growth at 10 µM [7] [%] | growth at 10 µM [8] [%] | growth at 10 µM [9] [%] | growth at 10 µM [10] [%] | growth at 10 µM [11] [%] | growth at 10 µM [12] [%] | growth at 10 µM [13] [%] | growth at 10 µM [14] [%] | growth at 10 µM [15] [%] | growth at 10 µM [16] [%] | growth at 10 µM [17] [%] | growth at 10 µM [18] [%] | growth at 10 µM [19] [%] | growth at 10 µM [20] [%] | other results |
| --- | --- | --- | --- | --- | --- | --- | --- | --- | --- | --- | --- | --- | --- | --- | --- | --- | --- | --- | --- | --- | --- |
| CCCCOc1nc2ccc(OC)cc2cc1C1CNC(=O)c2ccccc2N1 (stereo not drawn) | 89.3 | 106 | 86.9 | 87.1 | 105 | 108 | 104 | 97 | 95.3 | 89.5 | 77.7 | 99.3 | 107 | 90.4 | 97.3 | 102 | 96 | – | – | – | – |
| CCCCn1c(=O)c(C2CNC(=O)c3ccccc3N2)cc2ccccc21 (stereo not drawn) | 97.2 | 111 | 102 | 111 | 94.6 | 108 | 105 | 109 | 89.9 | 84 | 85.8 | 103 | 96.3 | 95.2 | 98.2 | 102 | 91.8 | 99.3 | 46.4 | 96.7 | growth at 10 µM [21]: 103%; growth at 10 µM [22]: 99.6%; growth at 10 µM [23]: 96.8%; growth at 10 µM [24]: 102%; growth at 10 µM [25]: 101% |
| O=C1NCC(c2cc3ccccc3[nH]c2=O)Nc2ccccc21 (stereo not drawn) | 89.9 | 107 | 97.2 | 98.4 | 99.4 | 111 | 107 | 87.8 | 96.5 | 99.6 | 88.1 | 104 | 91.2 | 104 | 99.7 | 103 | 90.6 | 90.2 | 111 | 95.7 | EC50 [26]: 64.7 µg/mL (≈ 212 µM); growth at 10 µM [21]: 106%; growth at 10 µM [22]: 103%; EC50 [27]: 110 µg/mL (≈ 361 µM); EC50 [28]: 48.8 µg/mL (≈ 160 µM); growth at 10 µM [23]: 106%; growth at 10 µM [24]: 100%; CC50 [29]: 36.3 µg/mL (≈ 119 µM); growth at 10 µM [25]: 106% |
| CCCCOc1nc2c(C)cccc2cc1C1CNC(=O)c2ccccc2N1 (stereo not drawn) | 69.2 | 90.8 | 43.4 | 89 | 69.7 | 86 | 4.51 | 98.7 | 68.3 | 56.6 | 52.1 | 71.7 | 112 | 62.6 | 66.3 | 66.4 | 56.2 | 19 | 39 | 26.2 | EC50 [26]: > 20 µg/mL; growth at 10 µM [21]: 61.9%; growth at 10 µM [22]: 15.8%; EC50 [27]: 3.35 µg/mL (≈ 8.92 µM); EC50 [28]: 2.68 µg/mL (≈ 7.14 µM); growth at 10 µM [23]: 52.5%; growth at 10 µM [24]: 18.1%; CC50 [29]: 1 µg/mL (≈ 2.66 µM); growth at 10 µM [25]: 43.4% |
| O=C1NCC(c2cc3ccc4ccccc4c3[nH]c2=O)Nc2ccccc21 (stereo not drawn) | 99.9 | 108 | 99.2 | 103 | 93.9 | 77.3 | 106 | 107 | 99.8 | 107 | 85.7 | 106 | 101 | 99.5 | 109 | 104 | 93.1 | 97.3 | 90.4 | 86.7 | EC50 [26]: > 20 µg/mL; growth at 10 µM [21]: 96.4%; growth at 10 µM [22]: 33.4%; EC50 [27]: 4.98 µg/mL (≈ 14 µM); growth at 10 µM [23]: 100%; growth at 10 µM [24]: 56.4%; CC50 [29]: 8.3 µg/mL (≈ 23.4 µM); growth at 10 µM [25]: 102% |
| O=C1CC(c2cc3ccccc3[nH]c2=O)Nc2ccccc21 (stereo not drawn) | 99.4 | 115 | 103 | 96.5 | 99.7 | 105 | 108 | 98 | 99.4 | 90.4 | 95.2 | 109 | 106 | 108 | 99.9 | 110 | 100 | 102 | 102 | 98 | growth at 10 µM [21]: 108%; growth at 10 µM [22]: 102%; growth at 10 µM [23]: 98.4%; growth at 10 µM [24]: 95.4%; growth at 10 µM [25]: 97.8% |
| O=C1CC(c2cc3ccc4ccccc4c3[nH]c2=O)Nc2ccccc21 (stereo not drawn) | 98.8 | 86.7 | 98.9 | 92.5 | 77.3 | 84.3 | 109 | 116 | 82.2 | 102 | 86 | 87.8 | 114 | 104 | 106 | 106 | 91.1 | 87.2 | 89.5 | 100 | growth at 10 µM [21]: 93.8%; growth at 10 µM [22]: 76.2%; growth at 10 µM [23]: 105%; growth at 10 µM [24]: 11.1%; growth at 10 µM [25]: 96.5% |
| CCCCn1c(=O)c(C2CNC(=O)c3ccccc3N2)cc2ccc(Cl)cc21 (stereo not drawn) | 89.8 | 89.6 | 97.9 | 99.6 | 102 | 94.9 | 103 | 126 | 82 | 90 | 72.5 | 97.8 | 109 | 95.9 | 95.4 | 108 | 94 | 87.9 | 107 | 107 | growth at 10 µM [21]: 89.8%; growth at 10 µM [22]: 89.1%; growth at 10 µM [23]: 104%; growth at 10 µM [24]: 59.8%; growth at 10 µM [25]: 98.5% |
